Source: paper doi:10.1101/2025.11.02.686125v3 (bioRxiv, 2025)
In brackets after ≈: the same amount, converted by molar mass. Like-named read-outs stand apart in the source and are kept apart here. Where a SMILES comes first, the peptide text is derived from it. Bridges are numbered along the chain shown (N, C = ends). [ ]: non-standard residue; d: D form. The star is where a group is joined. NMeT = CN[C@H](C(=O)O)[C@@H](C)O; dNMeL = CN[C@H](CC(C)C)C(=O)O; NMeV = CN[C@H](C(=O)O)C(C)C; X1 = COC(=O)[C@H](N)CS*; X2 = N[C@H](CS*)C(=O)O

Key:
Mav strain MAH11 = settings: 40 h

Compound | MIC Mav (Mav strain MAH11) | MIC Mtb (Mtb strain mc^26206) | MIC Mtb (Mtb strain mc^26206; strain mc^26206, 40 h) | Luminescence after benzyl alcohol pretreatment (Msm (luc) cells) | Luminescence after spermidine pretreatment (Msm (luc) cells)
COC(=O)[C@H](N)CSSC[C@H](NC(C)=O)C(=O)N(C)[C@H](C(=O)N1CCC[C@H]1C(=O)N(C)[C@@H]1C(=O)N[C@@H](CC(C)C)C(=O)N2CCC[C@H]2C(=O)N[C@@H](CC(C)C)C(=O)N(C)[C@@H](C(C)C)C(=O)N2CCC[C@H]2C(=O)N(C)[C@H](CC(C)C)C(=O)NCC(=O)O[C@@H]1C)C(C)C [cys-ME-GM] (Ac-C(X1)[NMeV]P[NMeT]LPL[NMeV]P[dNMeL]G; ester 4-C) | 4 µM (≈ 5.29 µg/mL) | 2 µM (≈ 2.64 µg/mL) |  |  | 
CC(=O)N[C@@H](CSSC[C@@H](N)C(=O)O)C(=O)N(C)[C@H](C(=O)N1CCC[C@H]1C(=O)N(C)[C@@H]1C(=O)N[C@@H](CC(C)C)C(=O)N2CCC[C@H]2C(=O)N[C@@H](CC(C)C)C(=O)N(C)[C@@H](C(C)C)C(=O)N2CCC[C@H]2C(=O)N(C)[C@H](CC(C)C)C(=O)NCC(=O)O[C@@H]1C)C(C)C [cys-GM] (Ac-C(X2)[NMeV]P[NMeT]LPL[NMeV]P[dNMeL]G; ester 4-C) | > 32 µM |  | > 32 µM |  | 
O=C(O)[C@H]1CSC(c2nc3ccc(O)cc3s2)=N1 [D-luciferin] |  |  |  | modestly reduced the accumulation | significant loss of signal
